The text below walks through data of EPA's ToxValDB 9.5 (doi:10.2903/j.efsa.2012.2504).

For one data set, the system named is Rattus norvegicus. The conditions noted are these: for LD50: acute, mortality.
For a further data set, the system named is Anas platyrhynchos. The conditions noted are these: oral, mortality.

The term LD50 denotes the dose at which mortality reaches 50%. A higher LD50 goes with a less toxic substance. `O=C(O)c1ccccc1C(F)(F)F` [2-(Trifluoromethyl)benzoic acid] came in with an LD50 in the data set with Rattus norvegicus (oral) above 2000 mg/kg.

By NOAEL is commonly meant the highest tested level that showed no adverse finding. Consider `COCCOC(=O)C(C#N)(C(=O)c1ccccc1C(F)(F)F)c1ccc(C(C)(C)C)cc1` (stereo not given) [Cyflumetofen], for which the LD50 in the data set on Anas platyrhynchos (acute, unspecified) is above 2250 mg/kg; in the data set on Colinus virginianus (acute, oral, mortality) it was above 2000 mg/kg; in the data set on Rattus norvegicus (oral) it was above 2000 mg/kg. Besides, the LC50 was above 2380 mg/kg-day in the data set with Anas platyrhynchos (short-term, feed) and above 1410 mg/kg-day in the data set with Colinus virginianus (acute, oral, diet, mortality). In the data set with Colinus virginianus (reproduction developmental, M), this compound had an NOEC of at least 84.4 mg/kg-day. Further, the no observed adverse effect level (NOAEL) stood at 16.5 mg/kg-day with Rattus norvegicus (chronic, duration: 2 years, organ weight); 34.6 mg/kg-day in the data set with Rattus norvegicus (chronic, no effects); 16.5 mg/kg-day in the data set on Rattus norvegicus (subchronic, duration: 90 days, oral, histopathology: nonneoplastic).
